# Reference: paper PMC7031697, “Mechanism of Activation of AMPK by Cordycepin” (Cell Chemical Biology, 2020)
# System: HepG2 cells
# Test: Cellular oxygen consumption (Seahorse XF24)
# Format: cell-based, human
# Experimental: Cellular oxygen consumption rate (OCR) was measured using a Seahorse XF24 Extracellular Flux Analyser with 50,000 cells per well, as described previously ([Hawley et al., 2010]). HepG2 cells were cultured overnight in 24 well plates (50,000 cells/well) in standard medium as above. One hour before the experiment, the medium was replaced with 675 μl of unbuffered medium, pH 7.4: 8.3 g/L DMEM base (Sigma), 2 mM GlutaMax-1, 5 mM glucose, 32 mM NaCl, and 40 μM Phenol Red. Compounds (75 μl) were injected into wells as specified, and OCR continuously measured as described by the manufacturers of the Analyser ([Wu et al., 2007]).
compound,measurement,setting,value
"Nc1ncnc2c1ncn2[C@@H]1O[C@H](CO)C[C@H]1O [cordycepin, 3′-deoxyadenosine]",effect on basal oxygen uptake,30 μM to 1 mM,only minor effects
same,inhibition of basal oxygen uptake,300 μM after 45 min and 1 mM after 30 and 45 min,modest inhibition
same,effect on maximal oxygen uptake,"after addition of the uncoupler 2,4-dinitrophenol",no significant effects
same,effect on residual oxygen uptake,after subsequent addition of rotenone and antimycin A,no significant effects
